Data as given in article PMC3445454, “Broad and Cross-Clade CD4^+ T-Cell Responses Elicited by a DNA Vaccine Encoding Highly Conserved and Promiscuous HIV-1 M-Group Consensus Peptides” (PLoS ONE, 2012).
Residue numbers refer to the chain shown, from its start. Like-named read-outs stand apart in the source and are kept apart here. Ends that are not written are not given here.

What was measured:
Assay in all cases: biochemical
HLA-DR DRB1*12:01 = HLA-DR DRB1*12:01 (Homo sapiens, UniProt P01903+P01911, A100R/A169T/D57E/D86V/F55L/H45Y/K41T/L162R/M171V/P40S/Q125H/Q178H/Q39Y/Q99D/R42G/S66L/T262R/V114A/V67L/W38E/Y59H/Y61H/Y89S); format: binding
[1] = molecular target: HLA-DP DPA1*03:01/DPB1*04:02 (Homo sapiens, UniProt P04440+P20036, A42M/A65V/A84D/A85E/L207M/L97S)
HLA-DP DPA1*03:01/DPB1*04:02, sequence (P04440 whole entry A65V/A84D/A85E/L207M): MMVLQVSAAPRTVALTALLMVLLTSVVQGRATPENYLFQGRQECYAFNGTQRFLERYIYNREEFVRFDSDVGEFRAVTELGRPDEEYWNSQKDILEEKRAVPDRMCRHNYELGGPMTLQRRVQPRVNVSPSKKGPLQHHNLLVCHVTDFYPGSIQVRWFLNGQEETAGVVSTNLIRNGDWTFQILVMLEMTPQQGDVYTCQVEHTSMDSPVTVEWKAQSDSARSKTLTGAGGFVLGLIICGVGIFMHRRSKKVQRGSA
HLA-DP DPA1*03:01/DPB1*04:02, sequence (P20036 whole entry A42M/L97S): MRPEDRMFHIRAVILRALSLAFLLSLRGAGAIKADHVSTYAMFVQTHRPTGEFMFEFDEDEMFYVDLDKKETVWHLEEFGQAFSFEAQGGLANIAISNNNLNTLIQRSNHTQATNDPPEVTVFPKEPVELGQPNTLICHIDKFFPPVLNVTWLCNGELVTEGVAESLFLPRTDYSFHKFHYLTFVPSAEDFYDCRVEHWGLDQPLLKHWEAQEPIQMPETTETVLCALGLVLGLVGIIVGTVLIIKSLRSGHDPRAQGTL
HLA-DR DRB1*09:01 = HLA-DR DRB1*09:01 (Homo sapiens, UniProt P01903+P01911, A100R/A103E/D57H/D86V/F55Y/F60I/F76Y/I96F/K127E/L162R/M171V/P40D/Q125H/Q99R/R33Q/R42F/S133A/S66N/T210M/V115G/W38K/Y107V/Y59G/Y89S); format: binding
[2] = molecular target: T1, HLA-DP DPA1*02:01/DPB1*14:01 (Homo sapiens, UniProt P04440+P20036, A65V/A84D/A85E/E86D/F191V/F38H/G113D/G114E/G40L/I94L/K142R/L158P/L37V/M105V/M116V/M62Q/P115A/Q81R/R125K/T114A/T199I/T259P); format: binding
T1 sequence (P20036 29-260 A42M/M62Q/Q81R/T114A/K142R/L158P/F191V/T259P): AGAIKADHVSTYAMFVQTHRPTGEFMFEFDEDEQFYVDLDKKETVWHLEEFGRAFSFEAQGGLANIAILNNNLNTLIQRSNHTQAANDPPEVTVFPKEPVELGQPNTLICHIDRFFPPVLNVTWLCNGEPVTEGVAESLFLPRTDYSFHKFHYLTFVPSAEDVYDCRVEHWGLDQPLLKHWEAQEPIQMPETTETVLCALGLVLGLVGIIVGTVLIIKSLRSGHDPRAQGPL
T1 sequence (P04440 30-258 L37V/F38H/G40L/A65V/A84D/A85E/E86D/I94L/M105V/G113D/G114E/P115A/M116V/R125K/T199I/R223Q): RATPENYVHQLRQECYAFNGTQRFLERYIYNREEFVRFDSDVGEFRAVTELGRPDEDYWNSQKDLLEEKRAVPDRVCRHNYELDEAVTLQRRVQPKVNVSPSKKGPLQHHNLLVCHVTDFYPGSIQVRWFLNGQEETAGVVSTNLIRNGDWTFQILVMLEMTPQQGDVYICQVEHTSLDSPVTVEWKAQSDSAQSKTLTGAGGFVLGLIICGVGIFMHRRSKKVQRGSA

HLA-DR DRB1*10:01 = HLA-DR DRB1*10:01 (Homo sapiens, UniProt P01903+P01911, A100R/A169T/D57E/F55L/F60V/F69Y/F76Y/I96L/L162R/M171V/P40V/Q260P/Q39E/Q99R/R195Q/R42F/S149N/S66Y/T210M/V115G/V67A/W38E/Y59R/Y61H); format: binding
HLA-DR DRB3*01:01 = HLA-DR DRB3*01:01 (Homo sapiens, UniProt P01903+P79483); format: binding
HLA-DR DRB3*02:02 = HLA-DR DRB3*02:02 (Homo sapiens, UniProt P01903+P79483, A212P/D57E/F66Y/L67A/R103Q/R218S/R40L/S89Y/T80R/V86D/Y55F/Y59H); format: binding
HLA-DR DRB3*02:02, sequence (P01903 26-254 limits assumed): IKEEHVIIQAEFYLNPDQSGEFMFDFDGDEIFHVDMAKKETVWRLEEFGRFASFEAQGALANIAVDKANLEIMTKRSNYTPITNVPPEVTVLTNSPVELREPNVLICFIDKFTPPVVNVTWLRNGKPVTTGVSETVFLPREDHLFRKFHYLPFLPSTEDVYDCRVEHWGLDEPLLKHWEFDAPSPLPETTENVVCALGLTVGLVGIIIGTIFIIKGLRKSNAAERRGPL
HLA-DR DRB3*02:02, sequence (P79483 30-266 R40L/Y55F/D57E/Y59H/F66Y/L67A/T80R/V86D/S89Y/R103Q/A212P/R218S limits assumed): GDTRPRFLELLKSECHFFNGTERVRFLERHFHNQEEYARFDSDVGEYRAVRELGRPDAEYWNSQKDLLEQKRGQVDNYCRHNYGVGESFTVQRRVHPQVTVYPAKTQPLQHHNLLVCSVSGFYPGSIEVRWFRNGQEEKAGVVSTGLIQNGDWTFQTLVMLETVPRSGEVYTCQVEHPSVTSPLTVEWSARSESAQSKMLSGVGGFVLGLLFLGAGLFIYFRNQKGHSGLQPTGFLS
HLA-DR DRB1*03:01 = HLA-DR DRB1*03:01 (Homo sapiens, UniProt P01903+P01911, A100K/A102G/A103R/A169T/F55Y/I96L/K41T/L162R/M171V/P40S/Q125H/Q178H/Q39Y/R42S/S66N/T106N/T262R/W38E/Y61H); format: binding
HLA-DR DRB1*03:01, sequence (P01903 26-254 limits assumed, other chains not shown): as the sequence (P01903 26-254 limits assumed) above
HLA-DR DRB1*01:01 = HLA-DR DRB1*01:01 (Homo sapiens, UniProt P01903+P01911, A100R/D57E/F55L/F60I/F76Y/I96L/L162R/M171V/P40L/Q125E/R42F/V115G/Y59C); format: binding
HLA-DR DRB1*07:01 = HLA-DR DRB1*07:01 (Homo sapiens, UniProt P01903+P01911, A100R/A102G/A103Q/D57E/D86V/E43K/F76Y/K127E/L162R/M171V/P40G/Q125H/Q99D/R33Q/R42Y/R54Q/S133A/S66F/T210M/V115G/Y107V/Y59L/Y89S); format: binding
HLA-DR DRB1*15:01 = HLA-DR DRB1*15:01 (Homo sapiens, UniProt P01903+P01911); format: binding
[3] = molecular target: T2, HLA-DP DPA1*01:03/DPB1*04:01 (Homo sapiens, UniProt P04440+P20036); format: binding
T2 sequence (P20036 29-260): T1 sequence (P20036 29-260 A42M/M62Q/Q81R/T114A/K142R/L158P/F191V/T259P) with M14A, Q34M, R53Q, A86T, R114K, P130L, V163F, P231T
T2 sequence (P04440 30-258): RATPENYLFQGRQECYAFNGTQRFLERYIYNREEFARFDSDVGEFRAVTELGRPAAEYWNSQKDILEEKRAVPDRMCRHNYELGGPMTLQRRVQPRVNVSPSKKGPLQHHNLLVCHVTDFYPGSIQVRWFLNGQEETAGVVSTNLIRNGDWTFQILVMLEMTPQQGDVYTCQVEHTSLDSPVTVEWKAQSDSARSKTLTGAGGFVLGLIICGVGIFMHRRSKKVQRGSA

[4] = read-out: Binding capacity/IC50 (nM) DRB1*12:01
[5] = read-out: Binding capacity/IC50 (nM) DRB1*09:01
[6] = read-out: Binding capacity/IC50 (nM) DPA1*02:01 DPB1*14:01
[7] = read-out: Binding capacity/IC50 (nM) DRB1*10:01
[8] = read-out: Binding capacity/IC50 (nM) DRB3*01:01
[9] = read-out: Binding capacity/IC50 (nM) DRB3*02:02
[10] = read-out: Binding capacity/IC50 (nM) DRB1*03:01
[11] = read-out: Binding capacity/IC50 (nM) DRB1*01:01
[12] = read-out: Binding capacity/IC50 (nM) DRB1*07:01
[13] = read-out: Binding capacity/IC50 (nM) DRB1*15:01
[14] = read-out: Binding capacity/IC50 (nM) DPA1*01:03 DPB1*04:01

| Compound | IC50 (HLA-DR DRB1*12:01; [4]) | IC50 [1] | IC50 (HLA-DR DRB1*09:01; [5]) | IC50 [2, 6] | IC50 (HLA-DR DRB1*10:01; [7]) | IC50 (HLA-DR DRB3*01:01; [8]) | IC50 (HLA-DR DRB3*02:02; [9]) | IC50 (HLA-DR DRB1*03:01; [10]) | IC50 (HLA-DR DRB1*01:01; [11]) | IC50 (HLA-DR DRB1*07:01; [12]) | IC50 (HLA-DR DRB1*15:01; [13]) | IC50 [3, 14] | IC50 (HLA-DR DRB3*01:01) | IC50 (HLA-DR DRB1*15:01) | IC50 (HLA-DR DRB1*12:01) | IC50 (HLA-DR DRB1*09:01) | IC50 (HLA-DR DRB1*10:01) | IC50 (HLA-DR DRB1*03:01) | IC50 (HLA-DR DRB1*01:01) | IC50 (HLA-DR DRB1*07:01) | further results |
| --- | --- | --- | --- | --- | --- | --- | --- | --- | --- | --- | --- | --- | --- | --- | --- | --- | --- | --- | --- | --- | --- |
| CC[C@H](C)[C@H](NC(=O)[C@@H](NC(=O)[C@H](CCCCN)NC(=O)[C@@H](NC(=O)[C@@H]1CCCN1C(=O)[C@H](Cc1c[nH]c2ccccc12)NC(=O)[C@H](CCCNC(=N)N)NC(=O)CNC(=O)[C@H](C)NC(=O)[C@H](CC(C)C)NC(=O)[C@H](CCCCN)NC(=O)[C@H](CC(C)C)NC(=O)[C@@H](NC(=O)[C@H](Cc1ccccc1)NC(=O)[C@H](Cc1ccc(O)cc1)NC(=O)[C@H](C)NC(=O)[C@@H](NC(=O)[C@@H](N)CCC(=O)O)[C@@H](C)O)[C@@H](C)CC)C(C)C)C(C)C)C(N)=O [integrase(96-113)] | 1510 nM | 141 nM | 390 nM | 12800 nM | 13 nM | 583 nM | 7470 nM | 224 nM | 4.3 nM | 1380 nM | 284 nM | 232 nM |  |  |  |  |  |  |  |  |  |
| CC[C@H](C)[C@H](NC(=O)[C@H](CCCCN)NC(=O)[C@@H](NC(=O)[C@@H](NC(=O)[C@@H](N)CCC(N)=O)[C@@H](C)CC)[C@@H](C)O)C(=O)N[C@@H](CCC(N)=O)C(=O)N[C@@H](CC(N)=O)C(=O)N[C@@H](Cc1ccccc1)C(=O)N[C@@H](CCCNC(=N)N)C(=O)N[C@H](C(=O)N[C@@H](Cc1ccc(O)cc1)C(=O)N[C@@H](Cc1ccc(O)cc1)C(=O)N[C@@H](CCCNC(=N)N)C(=O)N[C@@H](CC(=O)O)C(=O)N[C@@H](CO)C(=O)N[C@@H](CCCNC(=N)N)C(=O)N[C@@H](CC(=O)O)C(=O)N1CCC[C@H]1C(=O)N[C@H](C(=O)N[C@@H](Cc1c[nH]c2ccccc12)C(N)=O)[C@@H](C)CC)C(C)C [integrase(216-235)] | 6.6 nM | 89 nM | 542 nM | 145 nM | 45 nM |  |  | 11 nM | 0.7 nM | 63 nM |  |  | 39 nM | 5.3 nM |  |  |  |  |  |  | IC50 (HLA-DR DRB3*02:02): 414 nM; IC50 [3]: 1070 nM |
| CC[C@H](C)[C@H](NC(=O)[C@H](C)NC(=O)[C@H](CCCCN)NC(=O)[C@H](CCCCN)NC(=O)CNC(=O)[C@H](CS)NC(=O)[C@@H](NC(=O)[C@H](CCC(=O)O)NC(=O)[C@@H](NC(=O)[C@H](CC(C)C)NC(=O)[C@@H](NC(=O)[C@H](CCC(N)=O)NC(=O)[C@H](CC(=O)O)NC(=O)[C@H](Cc1ccc(O)cc1)NC(=O)[C@H](CCC(N)=O)NC(=O)[C@H](CCCNC(=N)N)NC(=O)[C@@H](NC(=O)[C@H](CCCCN)NC(=O)[C@@H](NC(=O)[C@@H](N)Cc1ccccc1)[C@@H](C)CC)C(C)C)[C@@H](C)CC)[C@@H](C)CC)[C@@H](C)CC)C(=O)NCC(=O)N[C@H](C(=O)N[C@H](C(N)=O)C(C)C)[C@@H](C)O [protease(53-75)] |  | 342 nM |  | 1250 nM |  | 545 nM | 9690 nM |  |  |  | 111 nM | 452 nM |  |  | 77 nM | 234 nM | 62 nM | 347 nM | 29 nM | 1770 nM |  |
| CC[C@H](C)[C@H](NC(=O)[C@H](C)NC(=O)[C@@H](N)CCC(=O)O)C(=O)N[C@H](C(=O)N[C@@H](CCCNC(=N)N)C(=O)N[C@H](C(=O)N[C@@H](CC(C)C)C(=O)N[C@@H](CCC(N)=O)C(=O)N[C@@H](CCC(N)=O)C(=O)N[C@@H](CC(C)C)C(=O)N[C@@H](CC(C)C)C(=O)N[C@@H](Cc1ccccc1)C(=O)N[C@H](C(=O)N[C@@H](Cc1c[nH]cn1)C(=O)N[C@@H](Cc1ccccc1)C(=O)N[C@@H](CCCNC(=N)N)C(=O)N[C@H](C(=O)NCC(=O)N[C@@H](CS)C(=O)N[C@@H](CCC(N)=O)C(=O)N[C@@H](Cc1c[nH]cn1)C(=O)N[C@@H](CO)C(=O)N[C@@H](CCCNC(=N)N)C(N)=O)[C@@H](C)CC)[C@@H](C)CC)[C@@H](C)CC)[C@@H](C)CC [vpr(58-80)] |  | 96 nM |  |  |  |  | 4090 nM |  |  |  |  | 113 nM | 11600 nM | 149 nM | 845 nM | 477 nM | 170 nM | 14400 nM | 305 nM | 885 nM | IC50 [2]: 3570 nM |
| EAVRHFPRPWLHGL-NH2 [vpr(29-42)] |  | 139 nM |  |  |  |  |  |  |  |  | 112 nM |  | 7870 nM |  | > 30000 nM | 1270 nM | 311 nM | > 30000 nM | 71 nM | 1390 nM | IC50 [2]: 7690 nM; IC50 (HLA-DR DRB3*02:02): 9490 nM; IC50 [3]: 17000 nM |
| SEELRSLYNTVATLYCVHQ-NH2 [p17(72-90)] | 1680 nM | 83 nM | 217 nM |  | 39 nM | 907 nM | 6290 nM | 652 nM | 20 nM | 661 nM | 143 nM | 240 nM |  |  |  |  |  |  |  |  | IC50 [2]: 9710 nM |
| VVIQDNSDIKVVPRRKAKII-NH2 [integrase(249-268)] |  | 3670 nM |  | 3980 nM |  | 2650 nM | 4530 nM |  |  |  |  |  |  | 139 nM | 2280 nM | 7040 nM | 913 nM | 90 nM | 110 nM | 5710 nM | IC50 [3]: 9120 nM |
